From US10293001B2, “Compositions and methods for restoring or rejuvenating stem/progenitor cell function” (University of Pittsburgh—Of the Commonwealth System of …, priority 2012, dated 2019) come the findings set out here.

One test has as its system Ercc1^−/− MEFs. The experiment in a line: Reversal of senescence (SA-β-gal) of Ercc1−/− MEFs. The format is cell-based, mouse. As to conditions: within 24 hours of treatment.
In another test the test system is aged WT MDSPCs. Nature of the test: Myogenic fusion of aged MDSPCs with IKKβ inhibition. The format is cell-based, mouse. The arrangement: dose or concentration left out as unconfirmed. As to conditions: under fusion conditions. The text has this:
To determine further whether the NF-κB signaling pathway plays a role in driving age-related stem cell dysfunction, whether pharmacologic inhibition of IKK-β would restore the myogenic potential of aged WT MDSPCs was examined. […] MDSPCs were isolated from 30 month old p65^+/− and 24 month old WT mice and compared the myogenic potential of 30 month old p65^+/− MDSPCs in vitro to naturally aged WT MDSPCs. The results confirmed that MDSPCs from p65^+/− aged mice (30 month) were more myogenic than MDSPCs from 24 month old WT mice.

The subject of another test is Ercc1^−/Δ mice. Nature of the test: Chronic treatment with mitochondrial radical scavenger in progeroid mice. The format is in vivo, mouse.

SMILES strings stand for the structures.

In the case of `O=C(c1ccc(Nc2nccc(-c3cc4ccccc4s3)n2)cc1)N1CCC(N2CCCC2)CC1` [IKKiVII], the “reversing senescence of Ercc1−/− MEFs (>60% of cells SA-β gal+)” value in the test on Ercc1^−/− MEFs is given as “could be reversed”.
Take `NC(=O)Nc1sc(-c2ccc(F)cc2)cc1C(N)=O` [IKKβ inhibitor IV]: the “fusion index of aged MDSPCs” value in the test on aged WT MDSPCs is listed as “significantly increased”.
On to `CC(C)C[C@@H](/C=C/[C@H](Cc1ccccc1)C(=O)N1CCC[C@H]1C(=O)N[C@H](C(=O)N[C@@H](CCCNC(=O)OCc1ccccc1)C(=O)NC1CC(C)(C)N([O])C(C)(C)C1)C(C)C)NC(=O)OC(C)(C)C` [XJB-5-131], for which, in the test on Ercc1^−/Δ mice, the “onset of aging-related degenerative changes” value was “delay the onset”.
